Measured values taken from patent publication US8703805B2 (Exelixis Patent Company LLC, priority 2005, dated 2014).

Test system: LXRα and/or LXRβ
Assay: LXR/LXRE co-transfection assay (luciferase reporter, CV-1 cells)
Format: cell-based, human
Settings: IC50 or EC50 for LXR (LXRα and/or LXRβ, not distinguished), tested as described in Example 109, CV-1 cells
Method in brief: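 Luciferase readout after 20 h compound exposure at 37 °C in CV-1 cells transiently expressing human LXRα or LXRβ with RXRα and an LXRE-driven reporter. Dose-response over 8 points at ½-log spacing, 4 wells each, fitted for EC50/IC50; values average ≥3 independent experiments, efficacy as % of high control.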

| SMILES | EC50 |
| --- | --- |
| CS(=O)(=O)c1cc(-c2ccc(-c3cc(C(F)(F)F)nn3-c3cc(Cl)ccc3Cl)s2)ccc1OCCO [Example 1255, 2-{[4-{5-[1-(2,5-dichlorophenyl)-3-(trifluoromethyl)-1H-pyrazol-5-yl]-2-thienyl}-2-(methylsulfonyl)phenyl]oxy}ethanol] | 1 to 10 µM |
| CC(C)(O)c1cc(-c2ccc(-c3cccc(S(C)(=O)=O)c3)s2)n(-c2cccc(Cl)c2)n1 [Example 1256, 2-[1-(3-chlorophenyl)-5-{5-[3-(methylsulfonyl)phenyl]-2-thienyl}-1H-pyrazol-3-yl]propan-2-ol] | 1 to 10 µM |
| CC(C)(O)c1cc(-c2ccc(-c3cccc(S(C)(=O)=O)c3)s2)n(-c2ccc(Cl)cc2)n1 [Example 1257, 2-[1-(4-chlorophenyl)-5-{5-[3-(methylsulfonyl)phenyl]-2-thienyl}-1H-pyrazol-3-yl]propan-2-ol] | 1 to 10 µM |
| CC(C)(O)c1cc(-c2ccc(-c3cccc(S(C)(=O)=O)c3)s2)n(-c2cccc(F)c2)n1 [Example 1258, 2-[1-(3-fluorophenyl)-5-{5-[3-(methylsulfonyl)phenyl]-2-thienyl}-1H-pyrazol-3-yl]propan-2-ol] | 1 to 10 µM |
| CS(=O)(=O)c1cc(-c2ccc(-c3cc(C(F)(F)F)nn3-c3cc(Cl)ccc3Cl)s2)ccc1OCCN1CCOCC1 [Example 1259, 4-(2-{[4-{5-[1-(2,5-dichlorophenyl)-3-(trifluoromethyl)-1H-pyrazol-5-yl]-2-thienyl}-2-(methylsulfonyl)phenyl]oxy}ethyl)morpholine] | 1 to 10 µM |
| CS(=O)(=O)c1cc(-c2ccc(-c3cc(C(F)(F)F)nn3-c3cc(Cl)ccc3Cl)s2)ccc1OCCc1nnn[nH]1 [Example 1260, 5-(2-{[4-{5-[1-(2,5-dichlorophenyl)-3-(trifluoromethyl)-1H-pyrazol-5-yl]-2-thienyl}-2-(methylsulfonyl)phenyl]oxy}ethyl)-1H-tetrazole] | 1 to 10 µM |
| CC(C)(O)c1cc(-c2ccc(-c3cccc(S(C)(=O)=O)c3)s2)n(-c2ccccc2F)n1 [Example 1261, 2-[1-(2-fluorophenyl)-5-{5-[3-(methylsulfonyl)phenyl]-2-thienyl}-1H-pyrazol-3-yl]propan-2-ol] | < 1 µM |
| CC(C)(O)c1cc(-c2ccc(-c3cccc(S(C)(=O)=O)c3)s2)n(-c2ccccc2)n1 [Example 1262, 2-(5-{5-[3-(methylsulfonyl)phenyl]-2-thienyl}-1-phenyl-1H-pyrazol-3-yl)propan-2-ol] | < 1 µM |
| CC(C)(O)c1cc(-c2ccc(-c3cccc(S(C)(=O)=O)c3)s2)n(-c2ccc(F)cc2)n1 [Example 1263, 2-[1-(4-fluorophenyl)-5-{5-[3-(methylsulfonyl)phenyl]-2-thienyl}-1H-pyrazol-3-yl]propan-2-ol] | 1 to 10 µM |
| CC(C)(O)c1cc(-c2ccc(-c3cccc(S(C)(=O)=O)c3)s2)n(-c2ccccn2)n1 [Example 1264, 2-(5-{5-[3-(methylsulfonyl)phenyl]-2-thienyl}-1-pyridin-2-yl-1H-pyrazol-3-yl)propan-2-ol] | 1 to 10 µM |
| CC(C)(O)c1cc(-c2ccc(-c3cccc(S(C)(=O)=O)c3)s2)n(-c2ccc(F)cc2F)n1 [Example 1265, 2-[1-(2,4-difluorophenyl)-5-{5-[3-(methylsulfonyl)phenyl]-2-thienyl}-1H-pyrazol-3-yl]propan-2-ol] | < 1 µM |
| CC(C)(O)c1cc(-c2ccc(-c3cccc(S(C)(=O)=O)c3)s2)n(-c2ccc(F)c(F)c2)n1 [Example 1267, 2-[1-(3,4-difluorophenyl)-5-{5-[3-(methylsulfonyl)phenyl]-2-thienyl}-1H-pyrazol-3-yl]propan-2-ol] | 1 to 10 µM |
| CC(=O)c1cc(-c2ccc(-c3cccc(S(C)(=O)=O)c3)s2)n(-c2ccccc2)n1 [Example 1268, 1-(5-{5-[3-(methylsulfonyl)phenyl]-2-thienyl}-1-phenyl-1H-pyrazol-3-yl)ethanone] | < 1 µM |
| CC(C)(O)c1cc(-c2ccc(-c3cccc(C#N)c3)s2)n(-c2ccccc2Cl)n1 [Example 1269, 3-{5-[1-(2-chlorophenyl)-3-(1-hydroxy-1-methylethyl)-1H-pyrazol-5-yl]-2-thienyl}benzonitrile] | 1 to 10 µM |
| CC(CO)NC(=O)c1cc(-c2ccc(-c3cccc(S(C)(=O)=O)c3)s2)n(-c2ccccc2Cl)n1 (centres unmarked) [Example 1270, 1-(2-chlorophenyl)-N-(2-hydroxy-1-methylethyl)-5-{5-[3-(methylsulfonyl)phenyl]-2-thienyl}-1H-pyrazole-3-carboxamide] | 1 to 10 µM |
| CN(Cc1cccnc1)C(=O)c1cc(-c2ccc(-c3cccc(S(C)(=O)=O)c3)s2)n(-c2ccccc2Cl)n1 [Example 1271, 1-(2-chlorophenyl)-N-methyl-5-{5-[3-(methylsulfonyl)phenyl]-2-thienyl}-N-(pyridin-3-ylmethyl)-1H-pyrazole-3-carboxamide] | 1 to 10 µM |
| CC(C)(O)c1cc(-c2ccc(-c3cccc(S(C)(=O)=O)c3)s2)n(-c2ncccc2F)n1 [Example 1272, 2-[1-(3-fluoropyridin-2-yl)-5-{5-[3-(methylsulfonyl)phenyl]-2-thienyl}-1H-pyrazol-3-yl]propan-2-ol] | 1 to 10 µM |
| CC(C)(O)c1cc(-c2ccc(-c3cccc(S(C)(=O)=O)c3)s2)n(-c2cccnc2Cl)n1 [Example 1273, 2-[1-(2-chloropyridin-3-yl)-5-{5-[3-(methylsulfonyl)phenyl]-2-thienyl}-1H-pyrazol-3-yl]propan-2-ol] | < 1 µM |

| SMILES | EC50 |
| --- | --- |
| CC(C)(O)c1cc(-c2ccc(-c3cccc(OC(F)(F)F)c3)s2)n(-c2ccccc2Cl)n1 [Example 1274, 2-[1-(2-chlorophenyl)-5-(5-{3-[(trifluoromethyl)oxy]phenyl}-2-thienyl)-1H-pyrazol-3-yl]propan-2-ol] | 1 to 10 µM |
| COC(=O)c1cccc(-c2ccc(-c3cc(C(=O)NCC(F)(F)F)nn3-c3ccccc3Cl)s2)c1 [Example 1275] | 1 to 10 µM |
| CC(C)(O)c1cccc(-c2ccc(-c3cc(C(=O)NCC(F)(F)F)nn3-c3ccccc3Cl)s2)c1 [Example 1276, 1-(2-chlorophenyl)-5-{5-[3-(1-hydroxy-1-methylethyl)phenyl]-2-thienyl}-N-(2,2,2-trifluoroethyl)-1H-pyrazole-3-carboxamide] | 1 to 10 µM |
| CS(=O)(=O)c1cccc(-c2ccc(-c3cc(C(=S)NCC(F)(F)F)nn3-c3ccccc3Cl)s2)c1 [Example 1277, 1-(2-chlorophenyl)-5-{5-[3-(methylsulfonyl)phenyl]-2-thienyl}-N-(2,2,2-trifluoromethyl)-1H-pyrazole-3-carbothioamide] | < 1 µM |
| CC(C)(O)c1nn(-c2ccccc2Cl)c(-c2ccc(-c3cccc(S(C)(=O)=O)c3)s2)c1Br [Example 1278, 2-[4-bromo-1-(2-chlorophenyl)-5-{5-[3-(methylsulfonyl)phenyl]-2-thienyl}-1H-pyrazol-3-yl]propan-2-ol] | < 1 µM |
| CC(C)(O)c1cc(-c2ccc(-c3cccc(S(C)(=O)=O)c3)s2)n(-c2cc(Cl)ccc2Cl)n1 [Example 1279, 2-[1-(2,5-dichlorophenyl)-5-{5-[3-(methylsulfonyl)phenyl]-2-thienyl}-1H-pyrazol-3-yl]propan-2-ol] | 1 to 10 µM |
| CC(C)(O)c1cc(-c2ccc(-c3cccc(S(C)(=O)=O)c3)s2)n(-c2ccc(Cl)cc2Cl)n1 [Example 1280, 2-[1-(2,4-dichlorophenyl)-5-{5-[3-(methylsulfonyl)phenyl]-2-thienyl}-1H-pyrazol-3-yl]propan-2-ol] | 1 to 10 µM |
| CC(C)(O)c1cc(-c2ccc(-c3cccc(S(C)(=O)=O)c3)s2)n(-c2cccc(Cl)c2Cl)n1 [Example 1281, 2-[1-(2,3-dichlorophenyl)-5-{5-[3-(methylsulfonyl)phenyl]-2-thienyl}-1H-pyrazol-3-yl]propan-2-ol] | < 1 µM |
| CC(C)(O)c1cc(-c2ccc(-c3ccc4cc[nH]c4c3)cc2)n(-c2ccccc2Cl)n1 [Example 1282, 2-{1-(2-chlorophenyl)-5-[4-(1H-indol-6-yl)phenyl]-1H-pyrazol-3-yl}propan-2-ol] | 1 to 10 µM |
| CC(C)(O)c1cc(-c2ccc(-c3ccc4[nH]ccc4c3)cc2)n(-c2ccccc2Cl)n1 [Example 1283, 2-{1-(2-chlorophenyl)-5-[4-(1H-indol-5-yl)phenyl]-1H-pyrazol-3-yl}propan-2-ol] | 1 to 10 µM |
| Cn1ccc2cc(-c3ccc(-c4cc(C(C)(C)O)nn4-c4ccccc4Cl)cc3)ccc21 [Example 1284, 2-{1-(2-chlorophenyl)-5-[4-(1-methyl-1H-indol-5-yl)phenyl]-1H-pyrazol-3-yl}propan-2-ol] | 1 to 10 µM |
| CC(C)(O)c1cc(-c2ccc(-c3cccc(O)c3)cc2)n(-c2ccccc2Cl)n1 [Example 1285, 4′-[1-(2-chlorophenyl)-3-(1-hydroxy-1-methylethyl)-1H-pyrazol-5-yl]biphenyl-3-ol] | 1 to 10 µM |
| CC(C)(O)c1cc(-c2ccc(-c3cccc4[nH]ccc34)cc2)n(-c2ccccc2Cl)n1 [Example 1286, 2-{1-(2-chlorophenyl)-5-[4-(1H-indol-4-yl)phenyl]-1H-pyrazol-3-yl}propan-2-ol] | 1 to 10 µM |
| CC(C)(O)c1cc(-c2ccc(-c3cccc(C(F)(F)F)c3)cc2)n(-c2ccccc2Cl)n1 [Example 1287, 2-{1-(2-chlorophenyl)-5-[3′-(trifluoromethyl)biphenyl-4-yl]-1H-pyrazol-3-yl}propan-2-ol] | 1 to 10 µM |
| CC(C)(O)c1cc(-c2ccc(-c3ccc(C(F)(F)F)cc3Cl)cc2)n(-c2ccccc2Cl)n1 [Example 1288, 2-{1-(2-chlorophenyl)-5-[2′-chloro-4′-(trifluoromethyl)biphenyl-4-yl]-1H-pyrazol-3-yl}propan-2-ol] | 1 to 10 µM |
| CC(C)(O)c1cc(-c2ccc(-c3ccc(C=O)s3)cc2)n(-c2ccccc2Cl)n1 [Example 1289, 5-{4-[1-(2-chlorophenyl)-3-(1-hydroxy-1-methylethyl)-1H-pyrazol-5-yl]phenyl}thiophene-2-carbaldehyde] | 1 to 10 µM |
| CC(=O)c1ccc(-c2ccc(-c3cc(C(C)(C)O)nn3-c3ccccc3Cl)cc2)s1 [Example 1290, 1-(5-{4-[1-(2-chlorophenyl)-3-(1-hydroxy-1-methylethyl)-1H-pyrazole-5-yl]phenyl}-2-thienyl)ethanone] | 1 to 10 µM |
